From patent US10508104B2, “6-hydroxy-5-(phenyl/heteroarylsulfonyl)pyrimidin-4(1H)-one as APJ agonists” (Bristol-Myers Squibb Company, priority 2016, dated 2019)

Molecular target: human APJ receptor (Homo sapiens (Human), UniProt P35414)
Experiment: Intracellular cAMP accumulation assay (APJ hcAMP, HTRF)
Format: cell-based
Details: HEK293 cells stably expressing human APJ receptor; inhibition of forskolin-mediated cAMP production; read-out: Human APJ cAMP EC50 Potency range
Procedure, shortened: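 HEK293 cells stably expressing human APJ, 5,000 per well, incubated 30 min at rt with compound, […] and 2 μM forskolin. cAMP measured by HTRF against a cAMP standard curve as inhibition of forskolin-driven production. EC50 from variable-slope sigmoidal fit.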

human APJ receptor, sequence (P35414 whole entry): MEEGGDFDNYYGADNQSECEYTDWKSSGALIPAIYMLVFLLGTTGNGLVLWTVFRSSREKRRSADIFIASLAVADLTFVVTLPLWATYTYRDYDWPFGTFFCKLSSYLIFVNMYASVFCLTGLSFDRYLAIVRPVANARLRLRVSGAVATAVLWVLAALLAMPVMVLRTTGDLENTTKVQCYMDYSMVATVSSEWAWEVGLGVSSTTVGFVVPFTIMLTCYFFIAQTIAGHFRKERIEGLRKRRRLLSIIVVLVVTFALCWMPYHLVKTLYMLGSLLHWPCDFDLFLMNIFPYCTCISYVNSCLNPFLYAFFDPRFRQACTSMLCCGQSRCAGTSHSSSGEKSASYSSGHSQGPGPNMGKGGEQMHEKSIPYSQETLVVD

SMILES | EC50 [nM]
CCOCc1nc(=O)c(S(=O)(=O)c2ccc(-c3ccc(F)nc3C)c(F)c2)c(O)n1C(COC)c1cccc(F)c1 (stereo not shown) [Example 375, 2-(ethoxymethyl)-5-[3-fluoro-4-(6-fluoro-2-methylpyridin-3-yl)benzenesulfonyl]-1-[1-(3-fluorophenyl)-2-methoxyethyl]-6-hydroxy-1,4-dihydropyrimidin-4-one] | 0.01 to 10
CCOCc1nc(=O)c(S(=O)(=O)c2ccc(-c3ccc(F)nc3C)c(F)c2)c(O)n1C(COC)c1cccc(F)c1 (stereo not shown) [Example 376, 2-(ethoxymethyl)-5-[3-fluoro-4-(6-fluoro-2-methylpyridin-3-yl)benzenesulfonyl]-1-[1-(3-fluorophenyl)-2-methoxyethyl]-6-hydroxy-1,4-dihydropyrimidin-4-one] | 0.01 to 10
COC[C@@H](c1cc(F)cc(F)c1)n1c(COC(C)C)nc(=O)c(S(=O)(=O)c2ccc(-c3ccncc3C)cc2)c1O [Example 377, 1-[(1R)-1-(3,5-difluorophenyl)-2-methoxyethyl]-6-hydroxy-5-[4-(3-methylpyridin-4-yl)benzenesulfonyl]-2-[(propan-2-yloxy)methyl]-1,4-dihydropyrimidin-4-one] | 0.01 to 10
COC[C@@H](c1cc(F)cc(F)c1)n1c(COC(C)C)nc(=O)c(S(=O)(=O)c2ccc(-c3ccnc(F)c3C)cc2)c1O [Example 378, 1-[(1R)-1-(3,5-difluorophenyl)-2-methoxyethyl]-5-[4-(2-fluoro-3-methylpyridin-4-yl)benzenesulfonyl]-6-hydroxy-2-[(propan-2-yloxy)methyl]-1,4-dihydropyrimidin-4-one] | 0.01 to 10
COC[C@@H](c1cc(F)cc(F)c1)n1c(COC(C)C)nc(=O)c(S(=O)(=O)c2ccc(-c3cccnc3C)cc2)c1O [Example 379, 1-[(1R)-1-(3,5-difluorophenyl)-2-methoxyethyl]-6-hydroxy-5-[4-(2-methylpyridin-3-yl)benzenesulfonyl]-2-[(propan-2-yloxy)methyl]-1,4-dihydropyrimidin-4-one] | 0.01 to 10
CC[C@@H](c1cccc(C#N)c1)n1c(COC(C)C)nc(=O)c(S(=O)(=O)c2ccc(-c3ccncc3C)cc2)c1O [Example 383, 3-[(1S)-1-{6-hydroxy-5-[4-(3-methylpyridin-4-yl)benzenesulfonyl]-4-oxo-2-[(propan-2-yloxy)methyl]-1,4-dihydropyrimidin-1-yl}propyl]benzonitrile] | 0.01 to 10
CCOCc1nc(=O)c(S(=O)(=O)c2ccc(-c3ccc(F)nc3C)cc2)c(O)n1[C@@H](COC)c1cc(F)cc(F)c1 [Example 385, 1-[(1R)-1-(3,5-difluorophenyl)-2-methoxyethyl]-2-(ethoxymethyl)-5-[4-(6-fluoro-2-methylpyridin-3-yl)benzenesulfonyl]-6-hydroxy-1,4-dihydropyrimidin-4-one] | 0.01 to 10
CCOCc1nc(=O)c(S(=O)(=O)c2ccc(-c3cccnc3C)cc2)c(O)n1[C@@H](COC)c1cc(F)cc(F)c1 [Example 386, 1-[(1R)-1-(3,5-difluorophenyl)-2-methoxyethyl]-2-(ethoxymethyl)-6-hydroxy-5-[4-(2-methylpyridin-3-yl)benzenesulfonyl]-1,4-dihydropyrimidin-4-one] | 0.01 to 10
CCOCc1nc(=O)c(S(=O)(=O)c2ccc(-c3ccncc3C)cc2)c(O)n1[C@@H](COC)c1cc(F)cc(F)c1 [Example 387, 1-[(1R)-1-(3,5-difluorophenyl)-2-methoxyethyl]-2-(ethoxymethyl)-6-hydroxy-5-[4-(3-methylpyridin-4-yl)benzenesulfonyl]-1,4-dihydropyrimidin-4-one] | 0.01 to 10
CCOCc1nc(=O)c(S(=O)(=O)c2ccc(-c3ccnc(F)c3C)cc2)c(O)n1[C@@H](COC)c1cc(F)cc(F)c1 [Example 388, 1-[(1R)-1-(3,5-difluorophenyl)-2-methoxyethyl]-2-(ethoxymethyl)-5-[4-(2-fluoro-3-methylpyridin-4-yl)benzenesulfonyl]-6-hydroxy-1,4-dihydropyrimidin-4-one] | 0.01 to 10
COC[C@@H](c1cc(F)cc(F)c1)n1c(COC(C)C)nc(=O)c(S(=O)(=O)c2ccc(-c3cncc(C#N)c3)cc2)c1O [Example 391, 5-[4-({1-[(1R)-1-(3,5-difluorophenyl)-2-methoxyethyl]-6-hydroxy-4-oxo-2-[(propan-2-yloxy)methyl]-1,4-dihydropyrimidin-5-yl}sulfonyl)phenyl] pyridine-3-carbonitrile] | 0.01 to 10
COC[C@@H](c1cc(F)cc(F)c1)n1c(COC(C)C)nc(=O)c(S(=O)(=O)c2ccc(-c3ccccc3C(N)=O)cc2)c1O [Example 392, 4′-({1-[(1R)-1-(3,5-difluorophenyl)-2-methoxyethyl]-6-hydroxy-4-oxo-2-[(propan-2-yloxy)methyl]-1,4-dihydropyrimidin-5-yl}sulfonyl)-[1,1′-biphenyl]-2-carboxamide] | 0.01 to 10
COC[C@@H](c1cc(F)cc(F)c1)n1c(COC(C)C)nc(=O)c(S(=O)(=O)c2ccc(-c3cn(C)nc3C)cc2)c1O [Example 396, 1-[(1R)-1-(3,5-difluorophenyl)-2-methoxyethyl]-5-[4-(1,3-dimethyl-1H-pyrazol-4-yl)benzenesulfonyl]-6-hydroxy-2-[(propan-2-yloxy)methyl]-1,4-dihydropyrimidin-4-one] | 0.01 to 10
COC[C@@H](c1cc(F)cc(F)c1)n1c(COC(C)C)nc(=O)c(S(=O)(=O)c2ccc(-c3cnn(C)c3C)cc2)c1O [Example 397, 1-[(1R)-1-(3,5-difluorophenyl)-2-methoxyethyl]-5-[4-(1,5-dimethyl-1H-pyrazol-4-yl)benzenesulfonyl]-6-hydroxy-2-[(propan-2-yloxy)methyl]-1,4-dihydropyrimidin-4-one] | 0.01 to 10
COC[C@@H](c1cc(F)cc(F)c1)n1c(COC(C)C)nc(=O)c(S(=O)(=O)c2ccc(-c3ccncc3C#N)cc2)c1O [Example 398, 4-[4-({1-[(1R)-1-(3,5-difluorophenyl)-2-methoxyethyl]-6-hydroxy-4-oxo-2-[(propan-2-yIoxy)methyl]-1,4-dihydropyrimidin-5-yl}sulfonyl)phenyl] pyridine-3-carbonitrile] | 0.01 to 10

Now from value to compound:

EC50 [nM] | SMILES
0.01 to 10 | COC[C@@H](c1cc(F)cc(F)c1)n1c(COC(C)C)nc(=O)c(S(=O)(=O)c2ccc(-c3ccc(F)nc3C)cc2)c1O [Example 380, 1-[(1R)-1-(3,5-difluorophenyl)-2-methoxyethyl]-5-[4-(6-fluoro-2-methylpyridin-3-yl)benzenesulfonyl]-6-hydroxy-2-[(propan-2-yloxy)methyl]-1,4-dihydropyrimidin-4-one]
0.01 to 10 | CC[C@@H](c1cccc(C#N)c1)n1c(COC(C)C)nc(=O)c(S(=O)(=O)c2ccc(-c3ccnc(F)c3C)cc2)c1O [Example 381, 3-[(1S)-1-{5-[4-(2-fluoro-3-methylpyridin-4-yl)benzenesulfonyl]-6-hydroxy-4-oxo-2-[(propan-2-yloxy)methyl]-1,4-dihydropyrimidin-1-yl}propyl]benzonitrile]
0.01 to 10 | CC[C@@H](c1cccc(C#N)c1)n1c(COC(C)C)nc(=O)c(S(=O)(=O)c2ccc(-c3ccc(F)nc3C)cc2)c1O [Example 382, 3-[(1S)-1-{5-[4-(6-fluoro-2-methylpyridin-3-yl)benzenesulfonyl]-6-hydroxy-4-oxo-2-[(propan-2-yloxy)methyl]-1,4-dihydropyrimidin-1-yl}propyl]benzonitrile]
0.01 to 10 | CC[C@@H](c1cccc(C#N)c1)n1c(COC(C)C)nc(=O)c(S(=O)(=O)c2ccc(-c3cccnc3C)cc2)c1O [Example 384, 3-[(1S)-1-{6-hydroxy-5-[4-(2-methylpyridin-3-yl)benzenesulfonyl]-4-oxo-2-[(propan-2-yloxy)methyl]-1,4-dihydropyrimidin-1-yl}propyl]benzonitrile]
0.01 to 10 | COC[C@@H](c1cccc(C#N)c1)n1c(COC(C)C)nc(=O)c(S(=O)(=O)c2ccc(-c3ccc(F)nc3C)cc2)c1O [Example 389, 3-[(1R)-1-{5-[4-(6-fluoro-2-methylpyridin-3-yl)benzenesulfonyl]-6-hydroxy-4-oxo-2-[(propan-2-yloxy)methyl]-1,4-dihydropyrimidin-1-yl}-2-methoxyethyl]benzonitrile]
0.01 to 10 | COC[C@@H](c1cccc(C#N)c1)n1c(COC(C)C)nc(=O)c(S(=O)(=O)c2ccc(-c3cccnc3C)cc2)c1O [Example 390, 3-[(1R)-1-{6-hydroxy-5-[4-(2-methylpyridin-3-yl)benzenesulfonyl]-4-oxo-2-[(propan-2-yloxy)methyl]-1,4-dihydropyrimidin-1-yl}-2-methoxyethyl]benzonitrile]
0.01 to 10 | COC[C@@H](c1cccc(C#N)c1)n1c(COC(C)C)nc(=O)c(S(=O)(=O)c2ccc(-c3cn(C)nc3C)cc2)c1O [Example 393, 3-[(1R)-1-{5-[4-(1,3-dimethyl-1H-pyrazol-4-yl)benzenesulfonyl]-6-hydroxy-4-oxo-2-[(propan-2-yloxy)methyl]-1,4-dihydropyrimidin-1-yl}-2-methoxyethyl]benzonitrile]
0.01 to 10 | COC[C@@H](c1cccc(C#N)c1)n1c(COC(C)C)nc(=O)c(S(=O)(=O)c2ccc(-c3c[nH]nc3C)cc2)c1O [Example 394, 3-[(1R)-1-{6-hydroxy-5-[4-(3-methyl-1H-pyrazol-4-yl)benzenesulfonyl]-4-oxo-2-[(propan-2-yloxy)methyl]-1,4-dihydropyrimidin-1-yl}-2-methoxyethyl]benzonitrile]
0.01 to 10 | COC[C@@H](c1cccc(C#N)c1)n1c(COC(C)C)nc(=O)c(S(=O)(=O)c2ccc(-c3ccnc(F)c3C)cc2)c1O [Example 395, 3-[(1R)-1-{5-[4-(2-fluoro-3-methylpyridin-4-yl)benzenesulfonyl]-6-hydroxy-4-oxo-2-[(propan-2-yloxy)methyl]-1,4-dihydropyrimidin-1-yl}-2-methoxyethyl]benzonitrile]
0.01 to 10 | COC[C@@H](c1cccc(C#N)c1)n1c(COC(C)C)nc(=O)c(S(=O)(=O)c2ccc(-c3ccccc3C(N)=O)cc2)c1O [Example 399, 4′-({1-[(1R)-1-(3-cyanophenyl)-2-methoxyethyl]-6-hydroxy-4-oxo-2-[(propan-2-yloxy)methyl]-1,4-dihydropyrimidin-5-yl}sulfonyl)-[1,1′-biphenyl]-2-carboxamide]
